According to US20240252488A1 (KOREA RESEARCH INSTITUTE OF CHEMICAL TECHNOLOGY, priority 2020, published 2024):

Legend:
MLKL [1] = biological target: T1, MLKL (Homo sapiens, UniProt Q8NB16); test: MLKL degradation assay in HepG2 cell line (western blot); assay type: cell-based; parameters: endogenous in cells; host or cells: HepG2 or HaCaT; settings: cell line not given; for Degradation assay (Degradation %) 1 μM: compound 1 μM; for Degradation assay (Degradation %) 10 μM: compound 10 μM
T1 sequence (Q8NB16 1-471): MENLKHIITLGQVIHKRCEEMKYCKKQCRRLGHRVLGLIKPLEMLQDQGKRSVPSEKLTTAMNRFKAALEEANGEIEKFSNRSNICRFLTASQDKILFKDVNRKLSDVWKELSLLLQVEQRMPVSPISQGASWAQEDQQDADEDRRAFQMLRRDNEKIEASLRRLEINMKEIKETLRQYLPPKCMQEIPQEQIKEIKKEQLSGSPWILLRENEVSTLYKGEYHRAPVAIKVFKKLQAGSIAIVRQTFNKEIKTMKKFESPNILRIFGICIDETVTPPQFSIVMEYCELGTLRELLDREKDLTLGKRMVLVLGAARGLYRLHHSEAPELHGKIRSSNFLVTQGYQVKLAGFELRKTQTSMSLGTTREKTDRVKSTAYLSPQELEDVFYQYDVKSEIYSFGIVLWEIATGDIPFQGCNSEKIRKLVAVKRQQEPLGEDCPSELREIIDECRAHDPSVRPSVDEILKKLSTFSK
Method in brief: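 HepG2, cpd final 1 or 10 μM, 20-24 h, 37 °C/5% CO2; RIPA lysis, BCA-normalized, 10-15 μg/lane SDS-PAGE, western blot, ECL read-out.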

FADD−/− Jurkat cells = test: Necroptosis inhibition assay, TNF-α-induced necroptosis (CellTiter-Glo 2.0); assay type: cell-based, human; settings: TNF-α 15 ng/mL; for Necroptosis inhibition assay (Rescue %) 1 μM: compound 1 μM; for Necroptosis inhibition assay (Rescue %) 10 μM: compound 10 μM
Method in brief: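 Cmpd 0.1/1/10 μM final, 30 min RT preincubation; TNF-α 15 ng/mL final; 20–24 h, 37° C, 5% CO2. Readout: ATP luminescence (reagent 1:3 in PBS), 0.5 s/well. Cytotoxicity and % necroptosis inhibition calculated from signal.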

MLKL [2] = biological target: T1, MLKL; test: Measurement of binding affinity with MLKL receptor (competitive binding assay, Kd); parameters: made in house; host or cells: HEK 293 cell line (T7 phage in E. coli BL21-derived host is also described)
Method in brief: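 Competition binding of kinase tagged with DNA for qPCR detection, expressed in HEK 293 cells, against immobilized ligand on beads. Final DMSO 0.9%. Kd derived from kinase amount in eluates measured by qPCR.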

SMILES	Degradation assay (Degradation %) 1 μM (MLKL [1])	Degradation assay (Degradation %) 10 μM (MLKL [1])	Kd (MLKL [2])	Necroptosis inhibition assay (Rescue %) 1 μM (FADD−/− Jurkat cells)	Necroptosis inhibition assay (Rescue %) 10 μM (FADD−/− Jurkat cells)	Necroptosis inhibition assay (Rescue %) 1 μM (FADD−/− Jurkat cells; FADD−/− Jurkat cells)	Necroptosis inhibition assay (Rescue %) 10 μM (FADD−/− Jurkat cells; FADD−/− Jurkat cells)	Necroptosis inhibition assay (Rescue %) 1.1 μM (FADD−/− Jurkat cells; compound 1.1 µM)
Nc1ncc(-c2ccc(N3CCN(CCOCCOCCNC(=O)C4CCN(c5ccc6c(c5)C(=O)N(C5CCC(=O)NC5=O)C6=O)CC4)CC3)nc2)nc1C(=O)OC(C(=O)Nc1ccc(F)cc1)c1ccccc1 (stereo not drawn) [TDH-258, 2-((4-fluorophenyl)amino)-2-oxo-1-phenylethyl 3-amino-6-(6-(4-(2-(2-(2-(1-(2-(2,6-dioxopiperidin-3-yl)-1,3-dioxoisoindolin-5-yl)piperidine-4-carboxamido)ethoxy)ethoxy)ethyl)piperazin-1-yl)pyridin-3-yl)pyrazine-2-carboxylate]	13.9%	10.67%	78 nM	33.73%	24.69%	–	–	–
Nc1ncc(-c2cnn(C3CCN(C(=O)COC4CCN(c5ccc6c(c5)C(=O)N(C5CCC(=O)NC5=O)C6=O)CC4)CC3)c2)nc1C(=O)O[C@@H](C(=O)Nc1ccc(F)cc1)c1ccccc1 (stereo partly drawn) [TDH-400, (R)-2-((4-fluorophenyl)amino)-2-oxo-1-phenylethyl 3-amino-6-(1-(1-(2-((1-(2-(2,6-dioxopiperidin-3-yl)-1,3-dioxoisoindolin-5-yl)piperidin-4-yl)oxy)acetyl)piperidin-4-yl)-1H-pyrazol-4-yl)pyrazine-2-carboxylate]	82.22%	74.77%	4.4 nM	27.80%	28.44%	–	–	–
Nc1ncc(-c2cnn(C3CCN(CCOC4CCN(C(=O)c5ccc(C(=O)NC6CCC(=O)NC6=O)cc5)CC4)CC3)c2)nc1C(=O)O[C@@H](C(=O)Nc1ccc(F)cc1)c1ccccc1 (stereo partly drawn) [TDH-538, (R)-2-((4-fluorophenyl)amino)-2-oxo-1-phenylethyl 3-amino-6-(1-(1-(2-((1-(4-((2,6-dioxopiperidin-3-yl)carbamoyl)benzoyl)piperidin-4-yl)oxy)ethyl)piperidin-4-yl)-1H-pyrazol-4-yl)pyrazine-2-carboxylate]	66.34%	54.70%	0.31 nM	–	–	24.02%	21.52%	–
Nc1ncc(-c2cnn(C3CCN(C(=O)CCC4CCN(C(=O)C5CN(c6ccc7c(c6)C(=O)N(C6CCC(=O)NC6=O)C7=O)C5)CC4)CC3)c2)nc1C(=O)O[C@@H](C(=O)Nc1ccc(F)cc1)c1ccccc1 (stereo partly drawn) [TDH-428, (R)-2-((4-fluorophenyl)amino)-2-oxo-1-phenylethyl 3-amino-6-(1-(1-(3-(1-(1-(2-(2,6-dioxopiperidin-3-yl)-1,3-dioxoisoindolin-5-yl)azetidine-3-carbonyl)piperidin-4-yl)propanoyl)piperidin-4-yl)-1H-pyrazol-4-yl)pyrazine-2-carboxylate]	58.66%	85.95%	4.1 nM	–	–	27.27%	9.58%	–

Further compounds by falling Kd (MLKL [2]), results first:

Degradation assay (Degradation %) 1 μM (MLKL [1])	Degradation assay (Degradation %) 10 μM (MLKL [1])	Kd (MLKL [2])	SMILES	Necroptosis inhibition assay (Rescue %) 1 μM (FADD−/− Jurkat cells)	Necroptosis inhibition assay (Rescue %) 10 μM (FADD−/− Jurkat cells)	Necroptosis inhibition assay (Rescue %) 1 μM (FADD−/− Jurkat cells; FADD−/− Jurkat cells)	Necroptosis inhibition assay (Rescue %) 10 μM (FADD−/− Jurkat cells; FADD−/− Jurkat cells)	Necroptosis inhibition assay (Rescue %) 1.1 μM (FADD−/− Jurkat cells; compound 1.1 µM)
57.66%	71.32%	4.1 nM	Nc1ncc(-c2cnn(C3CCN(CCC4CCN(C(=O)C5CN(c6ccc7nnn(C8CCC(=O)NC8=O)c(=O)c7c6)C5)CC4)CC3)c2)nc1C(=O)O[C@@H](C(=O)Nc1ccc(F)cc1)c1ccccc1 (stereo partly drawn) [TDH-333, (R)-2-((4-fluorophenyl)amino)-2-oxo-1-phenylethyl 3-amino-6-(1-(1-(2-(1-(1-(3-(2,6-dioxopiperidin-3-yl)-4-oxo-3,4-dihydrobenzo[d][1,2,3]triazin-6-yl)azetidine-3-carbonyl)piperidin-4-yl)ethyl)piperidin-4-yl)-1H-pyrazol-4-yl)pyrazine-2-carboxylate]	–	36.65%	–	–	58.92 (1.1µM) %
53.9%	65.78%	3.8 nM	Nc1ncc(-c2cnn(C3CCN(CCCN4CCN(C(=O)C5CCN(c6cccc7c6C(=O)N(C6CCC(=O)NC6=O)C7=O)CC5)CC4)CC3)c2)nc1C(=O)OC(C(=O)Nc1ccc(F)cc1)c1ccccc1 (stereo not drawn) [TDH-239, 2-((4-fluorophenyl)amino)-2-oxo-1-phenylethyl 3-amino-6-(1-(1-(3-(4-(1-(2-(2,6-dioxopiperidin-3-yl)-1,3-dioxoisoindolin-4-yl)piperidine-4-carbonyl)piperazin-1-yl)propyl)piperidin-4-yl)-1H-pyrazol-4-yl)pyrazine-2-carboxylate]	40.3%	23.29%	–	–	–
36.97%	55.66%	2.5 nM	Nc1ncc(-c2cnn(C3CCN(CC4CCN(C(=O)C5CN(c6ccc7c(c6)C(=O)N(C6CCC(=O)NC6=O)C7=O)C5)CC4)CC3)c2)nc1C(=O)O[C@@H](C(=O)Nc1ccc(F)cc1)c1ccccc1 (stereo partly drawn) [TDH-145, (R)-2-((4-fluorophenyl)amino)-2-oxo-1-phenylethyl 3-amino-6-(1-(1-((1-(1-(2-(2,6-dioxopiperidin-3-yl)-1,3-dioxoisoindolin-5-yl)azetidine-3-carbonyl)piperidin-4-yl)methyl)piperidin-4-yl)-1H-pyrazol-4-yl)pyrazine-2-carboxylate]	51.47%	40.41%	–	–	–
51.41%	80.48%	0.74 nM	COc1ccc(C(=O)N2CCC(C(=O)N3CCC(OCCN4CCC(CN5CCC(n6cc(-c7cnc(N)c(C(=O)O[C@@H](C(=O)Nc8ccc(F)cc8)c8ccccc8)n7)cn6)CC5)CC4)CC3)CC2)cc1N1CCC(=O)NC1=O [TDH-512, (R)-2-((4-fluorophenyl)amino)-2-oxo-1-phenylethyl 3-amino-6-(1-(1-((1-(2-((1-(1-(3-(2,4-dioxotetrahydropyrimidin-1(2H)-yl)-4-methoxybenzoyl)piperidine-4-carbonyl)piperidin-4-yl)oxy)ethyl)piperidin-4-yl)methyl)piperidin-4-yl)-1H-pyrazol-4-yl)pyrazine-2-carboxylate]	–	–	24.43%	52.33%	–
65.64%	74.02%	0.28 nM	Nc1ncc(-c2cnn(C3CCN(CCOC4CCN(C(=O)c5cccc(C(=O)NC6CCC(=O)NC6=O)c5)CC4)CC3)c2)nc1C(=O)O[C@@H](C(=O)Nc1ccc(F)cc1)c1ccccc1 (stereo partly drawn) [TDH-545, (R)-2-((4-fluorophenyl)amino)-2-oxo-1-phenylethyl 3-amino-6-(1-(1-(2-((1-(3-((2,6-dioxopiperidin-3-yl)carbamoyl)benzoyl)piperidin-4-yl)oxy)ethyl)piperidin-4-yl)-1H-pyrazol-4-yl)pyrazine-2-carboxylate]	–	–	32.16%	41.07%	–
